According to patent US20250280828A1, “FUNGICIDAL COMPOSITIONS” (SYNGENTA CROP PROTECTION AG, priority 2020, published 2025):

Test system: Phakopsora pachyrhizi
Assay: Preventative control against Phakopsora pachyrhizi (Asian soybean rust) / soybean / leaf disc
Assay type: in vivo
Conditions: foliar, evaluation 11 to 14 days after inoculation, read-out: Combined inhibition (observed); for inhibition at 0.4 g/ha: single active ingredient at 0.4 g/ha; for inhibition at 0.8 g/ha: single active ingredient at 0.8 g/ha
Experimental: Whole soybean plants are treated with the recited compositions of active ingredients four weeks after planting. One day after spraying application leaf discs are cut from the first trifoliate leaf. Five repetitions at each rate are conducted. The leaf discs are inoculated with Phakopsora pachyrhizi one day after treatment. Evaluation of the leaf discs is conducted 11 to 14 days after inoculation and the biological activity is derived from the relation of the treated compared to untreated, infested check plants. The rates of the active ingredients used are given in Tables 1 to 6 as g active ingredient (a.i.)/ha. Results from the tests outlined above are shown below in Tables 1 to 6. […] According to COLBY, in mathematical terms the synergism factor SF corresponds to O/E. In the agricultural practice an SF of […] indicates significant improvement over the purely complementary addition of activities (expected activity), while an SF of ≤0.9 in the practical application routine signals a loss of activity compared to the expected activity.

SMILES | inhibition at 0.2 g/ha (single active ingredient at 0.2 g/ha) [%] | inhibition at 0.4 g/ha [%] | inhibition at 0.8 g/ha [%]
CCC(=O)Oc1c(OC)ccnc1C(=O)N[C@@H](C)C(=O)O[C@@H](C)[C@@H](C)c1ccccc1C [A.03, [(1S,2S)-1-methyl-2-(o-tolyl)propyl](2S)-2-[(4-methoxy-3-propanoyloxy-pyridine-2-carbonyl)amino]propanoate] | 0 | 10 | 42
CON(Cc1ccc(-c2noc(C(F)(F)F)n2)cc1)C(=O)C1CC1 [B.01, N-methoxy-N-[[4-[5-(trifluoromethyl)-1,2,4-oxadiazol-3-yl]phenyl]methyl]cyclopropanecarboxamide] | – | – | 65
COC(C)C(=O)N(Cc1ccc(-c2noc(C(F)(F)F)n2)cc1)OC (stereo not shown) [B.02, N,2-dimethoxy-N-[[4-[5-(trifluoromethyl)-1,2,4-oxadiazol-3-yl]phenyl]methyl]propanamide] | – | 64 | –
CCN(Cc1ccc(-c2noc(C(F)(F)F)n2)cc1)C(=O)C(C)C [B.03, N-ethyl-2-methyl-N-[[4-[5-(trifluoromethyl)-1,2,4-oxadiazol-3-yl]phenyl]methyl]propanamide] | – | 21 | 55
CNC(=O)N(Cc1ccc(-c2noc(C(F)(F)F)n2)cc1)OC [B.04, 1-methoxy-3-methyl-1-[[4-[5-(trifluoromethyl)-1,2,4-oxadiazol-3-yl]phenyl]methyl]urea] | – | 44 | –
CCNC(=O)N(Cc1ccc(-c2noc(C(F)(F)F)n2)cc1)OC [B.06, 3-ethyl-1-methoxy-1-[[4-[5-(trifluoromethyl)-1,2,4-oxadiazol-3-yl]phenyl]methyl]urea] | – | 22 | –
CCOC(=O)c1cnn(Cc2ccc(-c3noc(C(F)(F)F)n3)cc2)c1 [B.10, ethyl 1-[[4-[5-(trifluoromethyl)-1,2,4-oxadiazol-3-yl]phenyl]methyl]pyrazole-4-carboxylate] | – | 55 | –
